Results published in PubChem BioAssay (NCI).
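Cultured in 96-well plates, cells were exposed to test compound for 48 hours across five concentrations. At the TGI there is no net growth.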 *1 amine or outer side, *2 acyl side, *3 side chain or, on linkers, in order; H or OH if unused. Where a SMILES comes first, the peptide text is derived from it. Bridges are numbered along the chain shown (N, C = ends). Roman numbers before positions name the chains, in order. [ ]: non-standard residue; d: D form. Actinocin(9to1) = Cc1c2oc3c(C)ccc(C(=O)[*:1])c3nc-2c(C(=O)[*:2])c(N)c1=O; Hyp = O=C(O)[CH]1C[CH](O)CN1; NMeV = CN[CH](C(=O)O)C(C)C; Sar = CNCC(=O)O

How the values were obtained:
Test in all cases: NCI tumour cell line growth inhibition, 48 h
UACC-62 melanoma = system: UACC-62 melanoma
MDA-N = system: MDA-N
SK-OV-3 ovarian = system: SK-OV-3 ovarian
M14 melanoma = system: M14 melanoma
SN12C renal = system: SN12C renal
RXF 393 renal = system: RXF 393 renal
IGROV1 ovarian = system: IGROV1 ovarian
SF-295 CNS = system: SF-295 CNS
UO-31 renal = system: UO-31 renal
SNB-75 CNS = system: SNB-75 CNS

Compound | TGI (UACC-62 melanoma) | TGI (MDA-N) | TGI (SK-OV-3 ovarian) | TGI (M14 melanoma) | TGI (SN12C renal) | TGI (RXF 393 renal) | TGI (IGROV1 ovarian) | TGI (SF-295 CNS) | TGI (UO-31 renal) | TGI (SNB-75 CNS)
C=CCOC(=O)N1c2ccc(O)cc2[C@@]23O[C@@]24[C@@H]1C#C/C=C\C#C[C@]3(O)C(OC)(OC)C[C@@H]4C | > 100 µM | 77.5 µM | > 100 µM | 79.9 µM | 61.6 µM | > 100 µM | 80.8 µM | > 100 µM | > 100 µM | 45.9 µM
O=C(OC1CN2CCC1CC2)N(c1ccccc1)c1ccccc1 (configuration not stated) | > 100 µM | > 100 µM | > 100 µM | > 100 µM | > 100 µM | > 100 µM | > 100 µM | > 100 µM | > 100 µM | > 100 µM
CCCCc1ccc(Nc2nc(Cl)c3c(ncn3C3CC(Oc4ccc(C)cc4)C(COc4ccc(C)cc4)O3)n2)cc1 (configuration not stated) | > 100 µM | > 100 µM | > 100 µM | > 100 µM | > 100 µM | > 100 µM | > 100 µM | > 100 µM | > 100 µM | 99.2 µM
CC(=O)O[C@H]1C[C@@H](OC(C)=O)[C@@](C)(O)[C@@H]2[C@@H](OC(C)=O)[C@@]3(O)[C@H](/C=C(/CO)[C@H]4O[C@H]4[C@@H](OC(C)=O)[C@@]12C)OC(=O)[C@@H]3C | > 25 µM | 7.63 µM | > 25 µM | > 25 µM | > 25 µM | 10.7 µM | > 25 µM | 16.8 µM | > 25 µM | 17.5 µM
Cc1cc(S(=O)(=O)Nc2nncn2-c2ccc(Cl)cc2)c(S)cc1Cl | > 10 µM | > 10 µM | > 10 µM | > 10 µM | > 10 µM | > 10 µM | > 10 µM | > 10 µM |  | > 10 µM
Cc1ccc(S(=O)(=O)N/N=C2\CC3CC4CCC2C4C3)cc1 (configuration not stated) | > 100 µM | > 100 µM | > 100 µM | > 100 µM | > 100 µM | > 100 µM | > 100 µM | > 100 µM | > 100 µM | > 100 µM
CCCCSC1=N/C(=C\c2ccc(N(C)C)cc2)C(=O)N1 | 81.3 µM | > 100 µM | > 100 µM | > 100 µM | 33.5 µM | > 100 µM | > 100 µM | > 100 µM |  | > 100 µM
CCCCCCCCP(=O)(O)OP(=O)(O)OCC1OC(n2ccc(N)nc2=O)C(O)C1O (configuration not stated) | > 100 µM | > 100 µM | > 100 µM | > 100 µM | > 100 µM | > 100 µM | > 100 µM | > 100 µM | > 100 µM | > 100 µM
CC1SC2(CCCCC2)N(NC(=O)CSc2nc3ccc(Cl)cc3c(=O)n2-c2ccccc2)C1=O (configuration not stated) | 37.5 µM | 36.2 µM | > 100 µM | 42.2 µM | 32.5 µM | 38.5 µM | 39.4 µM | 36.8 µM | 40.4 µM | 50.4 µM
CCOC1NC(=O)Oc2cc3ccccc3cc21 (configuration not stated) | > 100 µM | > 100 µM | > 100 µM | > 100 µM | > 100 µM | > 100 µM | > 100 µM | > 100 µM | > 100 µM | > 100 µM
CCCCc1ccc(Nc2nc(Cl)c3ccn(C4CC(Oc5ccc(C)cc5)C(COc5ccc(C)cc5)O4)c3n2)cc1 (configuration not stated) | 30.6 µM | > 46.4 µM | > 46.4 µM | > 46.4 µM | > 46.4 µM | > 46.4 µM | 29.5 µM | > 46.4 µM | 31.2 µM | > 100 µM
CCN(CC)CCn1c(=O)c2c(C)c3oc4ccccc4oc3c(C)c2c1=O | > 100 µM | > 100 µM | > 100 µM | > 100 µM | > 100 µM | > 100 µM | > 100 µM | > 100 µM |  | > 100 µM
CCOC(=O)/C=C(\C(=O)OCC)n1cc(Cl)c(=O)n(CC(=O)OCC)c1=O | 24.6 µM | 24 µM | 33.9 µM | 10.2 µM | 28.8 µM | 3.77 µM | 25.9 µM | > 61.1 µM | 3.27 µM | 35.9 µM
C=CC(=O)N1C/C(=C\c2ccc([N+](=O)[O-])cc2)C(=O)/C(=C/c2ccc([N+](=O)[O-])cc2)C1 | 0.688 µM | 0.856 µM | 2.85 µM | 0.41 µM | 0.772 µM | 0.359 µM | 0.419 µM | 0.603 µM | 0.375 µM | 1.16 µM
Cn1c2ccccc2c2cc(N3CCCC3)c3c(c21)C(=O)N(c1ccccc1)C3=O | > 100 µM | > 100 µM | > 100 µM | > 100 µM | > 100 µM | 91.2 µM | > 100 µM | > 100 µM | > 100 µM | > 100 µM
O=C(O)c1c2c(cc3c1CC1(Cc4cc5c(cc4C1=O)CCC5)C3)CCC2 (configuration not stated) | > 100 µM | > 100 µM | > 100 µM | > 100 µM | > 100 µM | > 100 µM | > 100 µM | > 100 µM | > 100 µM | > 100 µM
Cc1cc2c(c(S(=O)(=O)c3ccccc3[N+](=O)[O-])c1)NCCC2 | > 100 µM | > 100 µM | > 100 µM | > 100 µM | > 100 µM | > 100 µM | > 100 µM | > 100 µM | > 100 µM | > 100 µM
Cc1c(C)c(C)c(-n2c(=O)n(C)c(=O)n2-c2cc(C(C)(C)C)cc(C(C)(C)C)c2O)c(C)c1C | 23.7 µM | 22.9 µM | 25.2 µM | 25.9 µM | 21.7 µM | 11.6 µM | 22 µM | 21.2 µM | 14.1 µM | 16.9 µM
O[C@@H]1CCC[C@@H]2NC[C@@H](c3ccc4c(c3)OCO4)[C@H]12 | > 100 µM | > 100 µM | > 100 µM | > 100 µM |  | > 100 µM | > 100 µM | > 100 µM | > 100 µM | > 100 µM
COc1ccc(-c2ncn(C[Si](C)(C)C)c2-c2ccc(OC)cc2)cc1 | 10.2 µM | 10.9 µM | 36.9 µM | 14.8 µM | 24.3 µM | 21.1 µM | 23.1 µM | 18.3 µM | 10 µM | 28.3 µM
COc1ccc(NC(C(N)=O)c2cc3cc(Br)ccc3nc2Cl)cc1 (configuration not stated) | > 100 µM | > 100 µM | > 100 µM | > 100 µM | > 100 µM | > 100 µM | > 100 µM | > 100 µM | > 100 µM | > 100 µM
Cc1cc2c(cc1C)C(=O)C1(C2)Cc2cc3c(cc2C1=O)CCC3 (configuration not stated) | > 100 µM | > 100 µM | > 100 µM | > 100 µM | > 100 µM | > 100 µM | > 100 µM | > 100 µM | > 100 µM | > 100 µM
COc1cccc2cc(C(=O)Nc3ccccc3)c(=N)oc12 | > 100 µM | > 100 µM | > 100 µM | > 100 µM | > 100 µM | > 100 µM | > 100 µM | > 100 µM | > 100 µM | > 87.9 µM
Nn1c(=O)[nH]c2ncn(Cc3ccccc3)c2c1=O | > 100 µM | > 100 µM | > 100 µM | > 100 µM | > 100 µM | > 100 µM | > 100 µM | > 100 µM | > 100 µM | > 100 µM
O=C1CC(=O)NC(=NN2C(=O)CSC2C(=O)c2ccco2)N1 (configuration not stated) | > 100 µM | > 100 µM | > 100 µM | > 100 µM | > 100 µM | > 100 µM | > 100 µM | > 100 µM | > 100 µM | > 100 µM
O=[N+]([O-])c1cc(F)ccc1S(=O)(=O)c1ccccc1 | > 10 µM | > 10 µM | > 10 µM | > 10 µM | > 10 µM | > 10 µM | > 10 µM | > 10 µM |  | > 10 µM
Cc1c2oc3c(C)ccc(C(=O)NC4C(=O)NC(C(C)C)C(=O)N5CC(O)CC5C(=O)N(C)CC(=O)N(C)C(C(C)C)C(=O)OC4C)c3nc-2c(C(=O)NC2C(=O)NC(C(C)C)C(=O)N3CC(O)CC3C(=O)N(C)CC(=O)N(C)C(C(C)C)C(=O)OC2C)c(N)c1=O (configuration not stated) (I: TV[Hyp][Sar][NMeV] / II: TV[Hyp][Sar][NMeV]; ester I:1-I:C, II:1-II:C; linker I:N-II:N via Actinocin(9to1); configuration not given here) |  | > 1 µM | > 1 µM | > 1 µM | > 1 µM | > 1 µM | > 1 µM | > 1 µM | > 1 µM | > 1 µM
CO/N=C(\C([O-])=N\[n+]1cnn(CC(=O)OC(C)(C)C)c1)c1csc(NC(c2ccccc2)(c2ccccc2)c2ccccc2)n1 |  | > 10 µM | > 10 µM | > 10 µM | > 10 µM | > 10 µM | > 10 µM | > 10 µM | > 10 µM | > 10 µM
COc1c(Br)cc2ccccc2c1-c1c(OC)c(Br)cc2ccccc12 | > 100 µM | > 100 µM | > 100 µM | > 100 µM |  | > 100 µM | > 100 µM | > 100 µM | > 100 µM | > 100 µM
